The record followed here is PubChem BioAssay (NCI).

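Five compound concentrations were applied to cells in 96-well plates for 48 hours; endpoints were derived by simple linear interpolation of the resulting dose-response curve. Abbreviation: GI50, concentration required for 50% inhibition of growth. The concentration for full growth arrest is given as TGI.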

Some test systems named below: A549 NSCLC; SF-268 CNS; HCC-2998 colon; NCI-H226 lung; HCT-116 colon; NCI-H23 lung; TK-10 renal; HT29 colon.
Assay in all cases: inhibition of tumour cell growth, NCI panel, 48 h

`Cc1cc(Nc2cc(N3CCN(C)CC3)nc(Sc3ccc(NC(=O)C4CC4)cc3)n2)n[nH]1`: the GI50 in the assay with A549 NSCLC is 2.18 µM; with SF-268 CNS, 5.52 µM; in the assay on HCC-2998 colon, 5.66 µM; in the assay with NCI-H226 lung, 0.737 µM; with HCT-116 colon it was 0.273 µM; in the assay on NCI-H23 lung, 3.19 µM. The GI50 in the assay with TK-10 renal is over 10 µM; in the assay with HT29 colon it was 1.18 µM. The TGI with A549 NSCLC, with SF-268 CNS, in the assay on HCC-2998 colon, with NCI-H226 lung, in the assay with HCT-116 colon and in the assay with NCI-H23 lung was over 10 µM throughout. The TGI with TK-10 renal and in the assay on HT29 colon was over 10 µM each time.
For `Cc1ccc(NCCN(C)C)c2c(=O)c3ccccc3sc12`, the GI50 was 1.35 µM in the assay on A549 NSCLC; 1.97 µM in the assay on SF-268 CNS; 1.57 µM in the assay with HCC-2998 colon; 1.83 µM with NCI-H226 lung; 1.47 µM in the assay with HCT-116 colon; 1.97 µM in the assay with NCI-H23 lung. In addition, the GI50 in the assay with TK-10 renal was 2.34 µM; in the assay with HT29 colon it was 1.62 µM. The TGI in the assay with A549 NSCLC worked out at 3.4 µM; in the assay on SF-268 CNS, 4.74 µM; in the assay with HCC-2998 colon, 2.92 µM; in the assay on NCI-H226 lung, 3.96 µM; with HCT-116 colon, 2.8 µM; in the assay with NCI-H23 lung, 4.75 µM. The TGI in the assay on TK-10 renal was 5.45 µM; in the assay on HT29 colon, 3.77 µM.
On to `NC(=Nc1ccc(N)cc1)C(N)=Nc1ccc(N)cc1`, for which the GI50 was over 100 µM in the assay with A549 NSCLC; over 100 µM in the assay on SF-268 CNS; over 100 µM in the assay on HCC-2998 colon; over 100 µM in the assay on NCI-H226 lung; 92.5 µM in the assay with HCT-116 colon; over 100 µM with NCI-H23 lung. Besides, the GI50 in the assay on TK-10 renal is over 100 µM; in the assay with HT29 colon, 63.4 µM. The TGI in the assay with A549 NSCLC, in the assay with SF-268 CNS, with HCC-2998 colon, in the assay on NCI-H226 lung, with HCT-116 colon and in the assay on NCI-H23 lung was over 100 µM each time. The TGI in the assay on TK-10 renal and in the assay on HT29 colon was over 100 µM throughout.
Regarding `O=C(c1ccccc1)n1c(-c2ccccc2)cs/c1=N\S(=O)(=O)c1ccc(N2N=C3c4ccccc4CC3C2c2cccs2)cc1` (centres undefined), the GI50 with A549 NSCLC was 39.5 µM; with SF-268 CNS it was over 100 µM; in the assay with HCC-2998 colon, 14 µM; in the assay with NCI-H226 lung it was 30.1 µM; in the assay on HCT-116 colon, 30.5 µM; in the assay on NCI-H23 lung, 13 µM. Moreover, the GI50 is 30.5 µM with TK-10 renal and 73.7 µM in the assay with HT29 colon. In addition, the TGI in the assay with A549 NSCLC is over 100 µM; in the assay on SF-268 CNS it was over 100 µM; in the assay on HCC-2998 colon, 32.6 µM; with NCI-H226 lung, 85.2 µM; in the assay on HCT-116 colon, over 100 µM; in the assay on NCI-H23 lung it was 39.4 µM. The TGI in the assay on TK-10 renal is 70.7 µM; in the assay with HT29 colon, over 100 µM.
As for `COc1cc(C2C3=C(COC3=O)N(CCO)c3cc4c(cc32)OCO4)cc(OC)c1O` (centres undefined), the GI50 is 5.62 µM with A549 NSCLC; 2.18 µM in the assay with SF-268 CNS; 1.53 µM with HCC-2998 colon; 3.72 µM in the assay with NCI-H226 lung; 1.88 µM in the assay on HCT-116 colon; 1.84 µM in the assay on NCI-H23 lung. The GI50 is 4.54 µM with TK-10 renal and 1.38 µM in the assay with HT29 colon. Besides, the TGI in the assay on A549 NSCLC is over 50 µM; in the assay with SF-268 CNS, over 50 µM; with HCC-2998 colon, 4.65 µM; in the assay on NCI-H226 lung, over 50 µM; in the assay on HCT-116 colon it was over 26.3 µM; with NCI-H23 lung, over 38 µM. Moreover, the TGI with TK-10 renal is over 50 µM; in the assay with HT29 colon it was 5.32 µM.
As to `Clc1ccccc1C(Nc1ncccn1)Nc1ncccn1`, the TGI in the assay with A549 NSCLC, in the assay on SF-268 CNS, with HCC-2998 colon, with NCI-H226 lung, with HCT-116 colon and with NCI-H23 lung was over 100 µM each time. For the same compound, the TGI in the assay on TK-10 renal and with HT29 colon was over 100 µM throughout.
With `O=C(Nc1cc(Oc2cc(F)c(NC(=O)C3(C(=O)Nc4ccc(F)cc4)CC3)cc2F)ccn1)C1CC1`, the GI50 in the assay with A549 NSCLC was 3.21 µM; in the assay with SF-268 CNS, 3.09 µM; in the assay with HCC-2998 colon, 3.5 µM; in the assay with NCI-H226 lung, 2.53 µM; in the assay with HCT-116 colon, 2.27 µM; with NCI-H23 lung, 1.31 µM. Besides, the figures for the GI50 in the assay on TK-10 renal and with HT29 colon were 4.14 µM and 0.929 µM, respectively. Besides, the TGI with A549 NSCLC is over 36.6 µM; with SF-268 CNS it was over 28.5 µM; with HCC-2998 colon, over 29.4 µM; with NCI-H226 lung it was 7.98 µM; in the assay with HCT-116 colon it was over 100 µM; in the assay with NCI-H23 lung, 6.02 µM. In addition, the TGI in the assay with TK-10 renal is over 100 µM; in the assay with HT29 colon, 4.74 µM.
